According to US20240216366A1, “PHARMACEUTICAL COMPOSITION COMPRISING A DIPHENYLPYRAZINE DERIVATIVE” (ACTELION PHARMACEUTICALS LTD, priority 2021, published 2024):
Where a name gives a salt, the structure may show the parent alone.

How the values were obtained:
[1] = Feasibility pK rat study of aqueous micro-suspensions (LAI feasibility); format: in vivo; conditions: IM, 50 mg/kg; for long-acting release profile: 125 mg/mL micro-suspension pH 5
Procedure: For this study, aqueous micro-suspensions of Selexipag, {4-[(5,6-diphenylpyrazin-2-yl)(propan-2-yl)amino]butoxy}acetic acid and calcium; {4-[(5,6-diphenylpyrazin-2-yl)(propan-2-yl)amino]butoxy}acetate were prepared. An overview of the design of the study can be found in Table 1.
Release profiles and mean AUC of the different formulations are depicted in FIG. 1.

[2] = system: patients with pulmonary arterial hypertension; conditions: phase III clinical trial, versus placebo; cited from earlier work
[3] = Assay/purity of gamma-irradiated drug substance (UPLC); format: physicochemical
Procedure: To evaluate if gamma-irradiation could be used to produce sterile product, different irradiation grades were tested on calcium; {4-[(5,6-diphenylpyrazin-2-yl)(propan-2-yl)amino]butoxy}acetate. In this study, calcium; {4-[(5,6-diphenylpyrazin-2-yl)(propan-2-yl)amino]butoxy}acetate (“COMPOUND”) was irradiated with three different grades (i.e. 5, 25 and 40 kGy). Each irradiation grade was applied on two different COMPOUND vials. One of the two vials for each grade was flushed with nitrogen for 10 seconds. One reference vial containing non-irradiated COMPOUND was included in the assay/purity analysis. All samples were analyzed immediately after irradiation (Table 15) and re-analyzed after 3 months of storage at room temperature.
A second study was conducted on calcium: {4-[(5,6-diphenylpyrazin-2-yl)(propan-2-yl)amino]butoxy}acetate where three different irradiation grades were applied (i.e 5, 25 and 40 kGy).
Analytical Method used: The assay and the impurities of calcium salt of selexipag metabolite before (ref) and after gamma irradiation were analysed using reversed phase chromatography. Sample preparation was done by weighing 50 mg of sample in a 500 mL flask. Approximately 100 mL pH7 phosphate buffer:ACN (50:50) was added whereafter the flask was shaken mechanically for at least 30 minutes until complete dissolution. Dilute to volume with pH7 phosphate buffer:ACN (50:50). The resulting solution was diluted 5× by pipetting 5 mL into a 25 mL flask and diluting with the same dilution solvent. The reference solution is made following the same sample preparation, but using calcium salt of selexipag metabolite (“API”).
Analysis was performed using a Waters UPLC H-Class equipped with DAD detector, column manager and auto-sampler. Separation was done on a Acquity UPLC BEH C18 (2.1×150 mm, 1.7 μm) analytical column using a column temperature of 60° C. DAD detector was set on 230 nm. A 10 mM NH4Ac:ACN:MeOH (950:38:12) solution was used as mobile phase A. A 10 mM NH4Ac:ACN:MeOH (50:710:240) solution was used as mobile phase B. A linear gradient program of 26 minutes was applied starting in which the mobile phase B increases from 5% to 100% in 20 minutes. Hereafter the concentration of mobile phase B was brought back to 5% in 1 minute followed by an equilibration time of 5 minutes. The applied flow rate is 0.30 mL/min. An injection volume of 7 μL was used for the analysis. The assay value of the sample is calculated according following formula:
%=[API peak responsesample×concref×purityref×100%]/[peak responseref×concsample]
The concentration of an impurity is calculated according following formula:
%=[Impurity peak responsesample×concref×purityref×100%]/[peak responseref×concsample]

[4] = Assay/purity of gamma-irradiated drug product (UPLC); format: physicochemical; conditions: gamma-irradiation 40 and 60 kGy
Excerpt: For this reason, both gamma-irradiation and autoclavation (steam sterilization) of the final drug product need to be investigated. To evaluate the chemical stability of the final drug product during gamma-irradiation, 2 different concepts with calcium; {4-[(5,6-diphenylpyrazin-2-yl)(propan-2-yl)amino]butoxy}acetate having a particle size Dv50 of 8 micrometer were subjected to an irradiation grade of 40 kGy and 60 kGy.
Analytical Method used: The assay and the impurities of the gamma irradiated and non-gamma irradiated (ref) calcium salt of selexipag metabolite suspension (formulation) were analysed using reversed phase chromatography. Sample preparation was done by weighing 0.5 mL suspension in a 500 mL flask. Approximately 200 mL pH7 phosphate buffer:ACN (50:50) was added whereafter the flask was shaken mechanically for at least 30 minutes until complete dissolution. Dilute to volume with pH7 phosphate buffer:ACN (50:50). The resulting solution was diluted 5× by pipetting 5 mL into a 25 mL flask and diluting with the same dilution solvent. […]
Analysis was performed using a Waters UPLC H-Class equipped with DAD detector, column manager and auto-sampler. […] The assay value of the sample is calculated according following formula: […]
The concentration of an impurity is calculated according following formula: […]

[5] = Assay/purity of drug product after autoclavation (steam sterilization); format: physicochemical
Procedure: In parallel with gamma-irradiation of the final drug product (formulated calcium; {4-[(5,6-diphenylpyrazin-2-yl)(propan-2-yl)amino]butoxy}acetate having a particle size Dv50 of 8 micrometer), autoclavation (steam sterilization) was evaluated as well.
Not only the effect upon chemical stability, but upon resuspendability was evaluated as well for the process of autoclavation (steam sterilization). The tested samples of experiment 142 were evaluated for resuspendability right after autoclavation (T0) and after 14 days of storage at 5° C. Time needed for resuspendability was acceptable at both timepoints.

[6] = 5 kGy, 3 months at room temperature
[7] = 5 kGy, 3 months at room temperature, flushed with N2
[8] = 25 kGy, 3 months at room temperature
[9] = 25 kGy, 3 months at room temperature, flushed with N2
[10] = 40 kGy, 3 months at room temperature
[11] = 40 kGy, 3 months at room temperature, flushed with N2
[12] = Reference (non-irradiated), 3 months at room temperature

CC(C)N(CCCCOCC(=O)O)c1cnc(-c2ccccc2)c(-c2ccccc2)n1 [ACT-333679, 2-(4-((5,6-diphenylpyrazin-2-yl)(isopropyl)amino)butoxy)acetic acid, reference compound]
long-acting release profile [1]: did not demonstrate a long-acting release profile

CC(C)N(CCCCOCC(=O)NS(C)(=O)=O)c1cnc(-c2ccccc2)c(-c2ccccc2)n1 [Selexipag, 2-{4-[(5,6-diphenylpyrazin-2-yl)(propan-2-yl)amino]butoxy}-N-(methanesulfonyl)acetamide, reference compound]
long-acting release profile [1]: did not demonstrate a long-acting release profile
risk of the primary composite end point of death or a complication related to pulmonary arterial hypertension [2]: significantly lower

CC(C)N(CCCCOCC(=O)O)c1cnc(-c2ccccc2)c(-c2ccccc2)n1 [Ca-salt of ACT-333679, calcium; {4-[(5,6-diphenylpyrazin-2-yl)(propan-2-yl)amino]butoxy}acetate]
AUC increases up until ([1]; 125 mg/mL micro-suspension): ≤ 720 h
long-acting release profile up to ([1]; 125 mg/mL micro-suspension): up to 336 hours
plasma concentrations ([1]; 125 mg/mL micro-suspension, FIG. 1): significant lower plasma concentrations compared to both other groups
Assay, % COMPOUND [3, 6]: 94.0%
Impurity, % RRT 1.16* [3, 6]: <0.05%
Impurity, % RRT 1.32* [3, 6]: 0.06%
Impurity, % RRT 1.34* [3, 6]: <0.05%
Assay, % COMPOUND [3, 7]: 94.1%
Impurity, % RRT 1.16* [3, 7]: <0.05%
Impurity, % RRT 1.32* [3, 7]: 0.06%
Impurity, % RRT 1.34* [3, 7]: <0.05%
Assay, % COMPOUND ([3]; 5 kGy, T0): 95.3%
Impurity, % RRT 1.16* ([3]; 5 kGy, T0): 0.05%
Impurity, % RRT 1.32* ([3]; 5 kGy, T0): <0.05%
Impurity, % RRT 1.34* ([3]; 5 kGy, T0): 0.09%
Assay, % COMPOUND ([3]; 5 kGy, T0, flushed with N2): 94.6%
Impurity, % RRT 1.16* ([3]; 5 kGy, T0, flushed with N2): 0.05%
Impurity, % RRT 1.32* ([3]; 5 kGy, T0, flushed with N2): <0.05%
Impurity, % RRT 1.34* ([3]; 5 kGy, T0, flushed with N2): 0.06%
Assay, % COMPOUND [3, 8]: 94.2%
Impurity, % RRT 1.16* [3, 8]: 0.07%
Impurity, % RRT 1.32* [3, 8]: 0.12%
Impurity, % RRT 1.34* [3, 8]: 0.06%
Assay, % COMPOUND [3, 9]: 93.6%
Impurity, % RRT 1.16* [3, 9]: <0.05%
Impurity, % RRT 1.32* [3, 9]: 0.05%
Impurity, % RRT 1.34* [3, 9]: 0.08%
Assay, % COMPOUND ([3]; 25 kGy, T0): 95.1%
Impurity, % RRT 1.16* ([3]; 25 kGy, T0): 0.10%
Impurity, % RRT 1.32* ([3]; 25 kGy, T0): 0.11%
Impurity, % RRT 1.34* ([3]; 25 kGy, T0): 0.06%
Assay, % COMPOUND ([3]; 25 kGy, T0, flushed with N2): 95.6%
Impurity, % RRT 1.16* ([3]; 25 kGy, T0, flushed with N2): <0.05%
Impurity, % RRT 1.32* ([3]; 25 kGy, T0, flushed with N2): 0.13%
Impurity, % RRT 1.34* ([3]; 25 kGy, T0, flushed with N2): 0.09%
Assay, % COMPOUND [3, 10]: 94.3%
Impurity, % RRT 1.16* [3, 10]: 0.08%
Impurity, % RRT 1.32* [3, 10]: 0.15%
Impurity, % RRT 1.34* [3, 10]: 0.10%
Assay, % COMPOUND [3, 11]: 92.9%
Impurity, % RRT 1.16* [3, 11]: 0.08%
Impurity, % RRT 1.32* [3, 11]: 0.14%
Impurity, % RRT 1.34* [3, 11]: 0.10%
Assay, % COMPOUND ([3]; 40 kGy, T0): 94.3%
Impurity, % RRT 1.16* ([3]; 40 kGy, T0): 0.13%
Impurity, % RRT 1.32* ([3]; 40 kGy, T0): 0.14%
Impurity, % RRT 1.34* ([3]; 40 kGy, T0): 0.06%
Assay, % COMPOUND ([3]; 40 kGy, T0, flushed with N2): 94.5%
Impurity, % RRT 1.16* ([3]; 40 kGy, T0, flushed with N2): 0.12%
Impurity, % RRT 1.32* ([3]; 40 kGy, T0, flushed with N2): 0.15%
Impurity, % RRT 1.34* ([3]; 40 kGy, T0, flushed with N2): 0.07%
Assay, % COMPOUND [3, 12]: 94.4%
Impurity, % RRT 1.16* [3, 12]: <0.05%
Impurity, % RRT 1.32* [3, 12]: <0.05%
Impurity, % RRT 1.34* [3, 12]: <0.05%
Assay, % COMPOUND ([3]; Reference (non-irradiated), T0): 95.3%
Impurity, % RRT 1.16* ([3]; Reference (non-irradiated), T0): <0.05%
Impurity, % RRT 1.32* ([3]; Reference (non-irradiated), T0): <0.05%
Impurity, % RRT 1.34* ([3]; Reference (non-irradiated), T0): 0.09%
chemical stability ([3]; drug substance, gamma-irradiation 5, 25, 40 kGy): acceptable
Assay, % COMPOUND ([3]; second study, 5 kGy): 104.4%
Impurity, % RRT 1.15* ([3]; second study, 5 kGy): <0.05%
Impurity, % RRT 1.16* ([3]; second study, 5 kGy): <0.05%
Impurity, % RRT 1.32* ([3]; second study, 5 kGy): <0.05%
Assay, % COMPOUND ([3]; second study, 25 kGy): 104.3%
Impurity, % RRT 1.15* ([3]; second study, 25 kGy): 0.06%
Impurity, % RRT 1.16* ([3]; second study, 25 kGy): 0.09%
Impurity, % RRT 1.32* ([3]; second study, 25 kGy): 0.07%
Assay, % COMPOUND ([3]; second study, 40 kGy): 103.7%
Impurity, % RRT 1.15* ([3]; second study, 40 kGy): 0.06%
Impurity, % RRT 1.16* ([3]; second study, 40 kGy): 0.12%
Impurity, % RRT 1.32* ([3]; second study, 40 kGy): 0.10%
chemical stability in the drug product [4]: acceptable
chemical stability in the drug product [5]: chemically stable
